Results: US8153784B2, “Imaging of enzyme activity” (The General Hospital Corporation, priority 2004, dated 2012)

Tests used:
[1] = target: T1, horseradish peroxidase (HRP) (Armoracia rusticana, UniProt P00433); experiment: Pseudo-first-order rate constants of HRP-mediated conversion (relaxation times over time, 0.47 T); type: biochemical, horseradish; set-up: purchased Sigma-Aldrich type XII (catalogue number not given)
T1 sequence (P00433 31-338): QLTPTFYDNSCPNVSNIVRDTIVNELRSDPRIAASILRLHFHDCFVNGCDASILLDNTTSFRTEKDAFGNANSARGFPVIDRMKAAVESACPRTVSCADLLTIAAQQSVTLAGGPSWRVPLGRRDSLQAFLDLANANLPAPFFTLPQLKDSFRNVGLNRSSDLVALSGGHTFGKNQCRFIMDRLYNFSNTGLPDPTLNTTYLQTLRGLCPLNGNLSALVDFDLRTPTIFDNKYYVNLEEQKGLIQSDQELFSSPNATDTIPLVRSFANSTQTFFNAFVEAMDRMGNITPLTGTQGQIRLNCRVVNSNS
Experimental: Kinetics of the samples were observed by measuring T1 and T2 at 0.47 T and 40° C. of the samples over at least a 24 hour period. At different time points, 1 M of sodium azide (final concentration=0.17 M) was added to stop the enzyme mediated reaction. The resultant progress curve was fitted with an empirical mathematical model and analyzed according to the Guggenheim method to obtain the pseudo-first-order rate constants (Guggenheim E A. Philos. Mag. 1926; 2:538).
An important property of a suitable substrate for an enzyme is the kinetics of enzymatic reaction. To determine the utility of the paramagnetic complexes as suitable substrates for human myeloperoxidase (MPO), we measured the pseudo-first-order rate constant of these substrates in MPO, and compared to the same substrates' reactions in Horse Radish Peroxidase (HRP) by monitoring the changes in relaxation time over time. […] The results shown were obtained using T1 measurements. T2 measurements yielded nearly identical results. The results are presented as mean±SD. N/A=not applicable.

[2] = target: T2, endogenous mouse MPO (Mus musculus, UniProt P11247); experiment: LPS/Matrigel experiments, MR imaging; type: in vivo; conditions: mice; LPS/Matrigel right vs Matrigel left
T2 construct: endogenous in cells; host or cells: inflammatory cells recruited by LPS in C57BL6 male mice (Matrigel site in the thigh, or flank muscle myositis)
T2 sequence (P11247 139-718): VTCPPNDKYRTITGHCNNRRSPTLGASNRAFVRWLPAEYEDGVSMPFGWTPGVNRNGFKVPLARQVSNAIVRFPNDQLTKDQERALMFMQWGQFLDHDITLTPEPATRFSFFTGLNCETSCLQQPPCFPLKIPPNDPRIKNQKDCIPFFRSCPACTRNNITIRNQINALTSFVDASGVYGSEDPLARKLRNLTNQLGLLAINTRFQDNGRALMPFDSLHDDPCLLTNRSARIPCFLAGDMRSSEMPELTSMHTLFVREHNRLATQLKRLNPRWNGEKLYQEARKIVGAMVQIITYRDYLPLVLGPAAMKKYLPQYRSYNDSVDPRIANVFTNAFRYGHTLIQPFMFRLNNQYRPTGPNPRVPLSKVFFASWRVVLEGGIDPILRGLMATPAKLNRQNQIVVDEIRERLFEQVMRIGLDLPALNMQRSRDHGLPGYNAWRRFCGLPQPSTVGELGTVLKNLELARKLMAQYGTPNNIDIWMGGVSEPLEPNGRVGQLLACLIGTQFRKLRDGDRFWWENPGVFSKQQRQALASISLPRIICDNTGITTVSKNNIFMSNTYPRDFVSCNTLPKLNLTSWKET
Experimental: The MR imaging experiments were performed on a 1.5 T GE Excite scanner and a 4.7 T Bruker Pharmascan scanner. For all MR imaging experiments, precontrast T2-(TR=2000, TE=100, ETL=8, NEX=4, fast spin echo sequence) and T1-weighted images (TR=500, TE=11, NEX=4, spin echo sequence) with fat saturation were initially performed to locate the gels or area of inflammation. The substrates (0.3 mmol/kg) were subsequently injected via the tail vein of the mouse. The mouse was immediately imaged after the injection of the contrast agent using multiple T1-weighted sequences with fat saturation for at least 3 hours.
Ten-week old C57BL6 male mice were obtained from Jackson Laboratories. A total of 22 mice were used for the study. • 1. MPO/Matrigel imaging experiments: Matrigel™ (Beckton-Dickinson), a […] basement membrane matrix gel was used to immobilize human MPO and glucose oxidase (to supply H2O2 required for detecting MPO oxidative activity, Calbiochem). This was chosen to reflect deposits of human MPO in inflamed tissue in a mouse model. 400 μL of a mixture of Matrigel™ and MEM (Cambrex) was injected slowly into the thighs of each mouse one hour prior to imaging. The right thigh mixture also contained 15 U of MPO and 4 U of glucose oxidase (Calbiochem), while the left thigh mixture contained no enzyme and thus serves as an internal control. […]

| fraction of the final relaxation rate obtained within the first 5 minutes [1] | Pseudo first-order rate constant ([1]; from T1 measurements, mean±SD) [s⁻¹] | SMILES | increased enhancement on the MPO side [2] [fold] |
| --- | --- | --- | --- |
| more than 80% | 0.01 | CC(C(=O)NCC(=O)NCCc1c[nH]c2ccc(O)cc12)N1CCN(CC(=O)[O-])CCN(CC(=O)[O-])CCN(CC(=O)[O-])CC1.[Gd+3] (stereo not drawn) [5-HT-DOTA(Gd), Glycylmethyl DOTA(Gd) 5-Hydroxytryptamide] |  |
|  |  | O=C([O-])CN(CCN(CC(=O)[O-])CC(=O)NCCc1c[nH]c2ccc(O)cc12)CCN(CC(=O)[O-])CC(=O)NCCc1c[nH]c2ccc(O)cc12.[Gd+3] [2Gd^3+] | 1.3 |
